Experimental data taken from patent publication US12692477B2, “Medium composition for culturing porcine pluripotent stem cells” (SPACE F CORP., priority 2018, dated 2026).

B1: activin A: activin A, signal molecule acting through the SMAD signal transduction system (protein, UniProt P08476 311-426, looked up)
Inhibin beta A chain: GLECDGKVNICCKKQFFVSFKDIGWNDWIIAPSGYHANYCEGECPSHIAGTSGSSLSFHSTVINHYRMRGHSPFANLKSCCVPTKLRPMSMLYYDDGQNIIKKDIQNMIVEECGCS

Legend:
[1] = test system: porcine pluripotent stem cells; test: Influence of growth factor concentration in porcine pluripotent stem cell culture medium; format: cell-based; conditions: for Optimal concentration / optimal concentration: in culture medium
Protocol: The influence of a growth factor concentration in a porcine pluripotent stem cell culture medium established in the above-described example was analyzed, and the results are shown in Table 10. When the concentration of growth factors was low, the growth of stem cells was reduced, and when the concentration of growth factor was high, except for bFGF, cells were killed. The allowable concentration of the bFGF was 3.03×10^−4 to 6.06×10^−3 μM, and the optimal concentration was 1.21×10^−3 μM. The allowable concentration of the Activin A was 1.50×10^−4 to 5.40×10^−4 μM, and the optimal concentration was 3.85×10^−4 μM. The allowable concentration of the CHIR99021 was 0.5 to 2.50 μM, and the optimal concentration was 1.50 μM. The allowable concentration of the IWR-1 was 1.20 to 3.00 μM, and the optimal concentration was 2.50 μM.

[2] = test system: porcine blastocysts (inner cell mass); test: Culture of porcine blastocysts on feeder cells with signal molecule combinations in serum replacement medium; format: cell-based
Protocol: First, a culture medium including KSR, N2/B27, KSR+N2/B27, or KSR+LC was used to find a serum replacement suitable for the growth of porcine embryos. […] As a result, it was confirmed that the inner cell mass expressing SOX2 rapidly grew in the group treated with KSR and KSR+LC (FIG. 1). Second, for long-term culturing of the inner cell mass, signal molecules were treated in various combinations (Table 6 and Table 7).
The culturing was attempted by adding signal molecules to basal medium including KSR or KSR+LC. Porcine embryonic stein cells were established in a culture medium including FGF2, A, and 6-[[2-[[4-(2,4-Dichlorophenyl)-5-(5-methyl-1H-imidazol-2-yl)-2-pyrimidinyl]amino]ethyl]amino]-3-pyridinecarbonitrile (CHIR99021) in a culture solution including serum replacement 4 (Tables 6 and 7, FIG. 2). In addition, for the stabilization of CHIR99021, 4-(1,3,3a,4,7,7a-Hexahydro-1,3-dioxo-4,7-methano-2H-isoindol-2-yl)-N-8-quinolinyl-Benzamide (IWR-1) was added to establish the composition for long-term culturing and maintenance of porcine embryonic stem cells, as shown in Table 8 and Table 9, respectively.

Row | Molecule | Optimal concentration [1] [mM] | optimal concentration [1] [µM] | Blastocyst initial growth rate (%) ([2]; serum replacement 1) | Sox2 positive rate of the initial population (%) ([2]; serum replacement 1) | Number of embryonic stem cell lines established in the long-term culture ([2]; serum replacement 1, 30 blastocysts) | Blastocyst initial growth rate (%) ([2]; serum replacement 4) | Sox2 positive rate of the initial population (%) ([2]; serum replacement 4) | Number of embryonic stem cell lines established in the long-term culture ([2]; serum replacement 4, 29 blastocysts) | Symptoms when exceeding the appropriate concentration [1]
1 | O=C(Nc1cccc2cccnc12)c1ccc(N2C(=O)C3C4C=CC(C4)C3C2=O)cc1 (stereo not drawn) [IWR-1, 4-(1,3,3a,4,7,7a-Hexahydro-1,3-dioxo-4,7-methano-2H-isoindol-2-yl)-N-8-quinolinyl-Benzamide, reference compound] | 0.0025 | 2.50 | – | – | – | – | – | – | –
2 | Cc1cnc(-c2cnc(NCCNc3ccc(C#N)cn3)nc2-c2ccc(Cl)cc2Cl)[nH]1 [CHIR99021, 6-[[2-[[4-(2,4-Dichlorophenyl)-5-(5-methyl-1H-imidazol-2-yl)-2-pyrimidinyl]amino]ethyl]amino]-3-pyridinecarbonitrile, reference compound] | 0.0015 | 1.50 | – | – | – | – | – | – | –
3 | bFGF: basic fibroblast growth factor, signal molecule in the culture medium | 1.21e-06 | 0.00121 | 30.0 ± 5.8 | 30.0 ± 5.8 | 0 | 51.5 ± 4.6 | 44.8 ± 2.9 | 0 | –
4 | B1 | 3.85e-07 | 0.000385 | – | – | – | – | – | – | Cell death
